Patent US20090291977A1, “Chromane Derivatives Useful As Acid Pump Antagonists” (priority 2004, published 2009)

target: T1, Porcine gastric H+/K+-ATPase (Sus scrofa, UniProt P19156); test: Ion-leaky porcine gastric H+/K+-ATPase inhibition; format: biochemical; settings: ion-leaky vesicles, 5 mM KCl, pH 6.4, 37° C., 30 minutes
T1 construct: The gastric vesicles were collected from interface on 0.25 M sucrose layer containing 7% Ficoll; from tissue; host or cells: mucous membrane of fresh porcine stomachs (gastric vesicles)
Description: The porcine gastric vesicles for Porcine gastric H^+/K^+-ATPase inhibition assays were prepared from mucous membrane in fresh porcine stomachs by homogenization with a tight-fitted polytetrafluoroethylene (Teflone®) homogenizer in 0.25 M sucrose at 4° C. The crude pellet was removed with centrifugation at 20,000 g for 30 min. Then supernatant was centrifuged at 100,000 g for 30 min. The resulting pellet was re-suspended in 0.25 M sucrose, and then subjected to density gradient centrifugation at 132,000 g for 90 min. The gastric vesicles were collected from interface on 0.25 M sucrose layer containing 7% Ficoll™ PM400(Amersham Biosciences). This procedure was performed in a cold room.
Ion-leaky porcine gastric H^+/K^+-ATPase-inhibition was measured according to the modified method described in Biochemical Pharmacology, 1988, 37, 2231-2236.
The isolated vesicles were lyophilized, and then kept in deep-freezer until use. For enzyme assay, lyophilized vesicles were reconstituted with 3 mM MgSO4 containing 40 mM Bis-tris (pH 6.4 at 37° C.).
Enzyme reaction was performed incubating 5 mM KCl, 3 mM Na2ATP, 3 mM MgSO4 and 1.0 μg of reconstituted vesicles for 30 minutes at 37° C. in a final 60 μl of reaction mixture (40 mM Bis-tris, pH 6.4) with or without the test compound. Enzyme reaction was stopped by adding 10% sodium dodecyl sulphate (SDS). Released inorganic phosphate from ATP was detected by incubation with mixture of 1 part of 35 mM ammonium molybdate tetrahydrate in 15 mM Zinc acetate hydrate and 4 parts of 10% ascorbic acid (pH 5.0), resulting in phosphomolybdate, which has optical density at 750 nm.

T1 sequence (P19156 2-1034 limits assumed): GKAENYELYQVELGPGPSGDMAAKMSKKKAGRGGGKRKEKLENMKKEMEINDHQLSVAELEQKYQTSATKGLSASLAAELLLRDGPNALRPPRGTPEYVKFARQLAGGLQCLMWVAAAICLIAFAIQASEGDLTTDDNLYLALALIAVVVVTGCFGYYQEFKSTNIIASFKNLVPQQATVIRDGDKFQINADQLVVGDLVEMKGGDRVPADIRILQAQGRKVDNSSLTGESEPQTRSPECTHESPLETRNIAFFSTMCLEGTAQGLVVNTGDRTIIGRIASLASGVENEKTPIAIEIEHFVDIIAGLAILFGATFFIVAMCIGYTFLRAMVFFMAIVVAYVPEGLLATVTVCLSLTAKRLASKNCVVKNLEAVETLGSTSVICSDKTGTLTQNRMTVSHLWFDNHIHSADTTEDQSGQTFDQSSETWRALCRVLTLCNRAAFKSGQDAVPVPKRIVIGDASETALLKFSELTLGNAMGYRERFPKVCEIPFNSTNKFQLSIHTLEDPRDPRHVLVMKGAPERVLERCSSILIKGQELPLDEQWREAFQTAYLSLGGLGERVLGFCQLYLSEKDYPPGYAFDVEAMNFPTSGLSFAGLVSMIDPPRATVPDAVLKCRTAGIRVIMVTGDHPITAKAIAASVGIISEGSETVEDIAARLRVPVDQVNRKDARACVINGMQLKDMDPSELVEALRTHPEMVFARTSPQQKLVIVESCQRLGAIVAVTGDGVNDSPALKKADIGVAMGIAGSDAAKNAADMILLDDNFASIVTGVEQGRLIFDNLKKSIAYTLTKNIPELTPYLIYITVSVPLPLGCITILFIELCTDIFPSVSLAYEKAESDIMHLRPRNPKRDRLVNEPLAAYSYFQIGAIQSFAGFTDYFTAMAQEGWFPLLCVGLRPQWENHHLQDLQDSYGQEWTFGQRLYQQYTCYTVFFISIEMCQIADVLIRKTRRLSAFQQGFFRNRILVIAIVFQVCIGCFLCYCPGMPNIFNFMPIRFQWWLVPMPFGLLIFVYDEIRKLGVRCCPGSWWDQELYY
T1 sequence (P18434 whole entry partner): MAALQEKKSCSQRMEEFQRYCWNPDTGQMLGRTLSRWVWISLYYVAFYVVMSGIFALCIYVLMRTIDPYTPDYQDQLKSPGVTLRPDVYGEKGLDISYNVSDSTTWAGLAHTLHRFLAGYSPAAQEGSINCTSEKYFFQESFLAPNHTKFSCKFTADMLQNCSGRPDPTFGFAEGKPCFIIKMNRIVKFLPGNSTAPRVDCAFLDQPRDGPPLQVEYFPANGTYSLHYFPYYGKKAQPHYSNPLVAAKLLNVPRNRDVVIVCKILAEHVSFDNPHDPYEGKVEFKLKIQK

Row | IC50 | SMILES
1 | 93 nM | Cc1cccc2c1C(Nc1cc(C(=O)N(C)CCO)cn3c(C)c(C)nc13)CCO2 (single isomer, unassigned; (+)) [Example 5-3, (+)-N-(2-Hydroxyethyl)-N,2,3-trimethyl-8-[(5-methyl-3,4-dihydro-2H-chromen-4-yl)amino]imidazo[1,2-a]pyridine-6-carboxamide]
2 | 230 nM | Cc1nc2c(NC3CCOc4c(F)cccc43)cc(C(=O)N(C)CCO)cn2c1C (single isomer, unassigned) [Example 15-2, 8-[(8-Fluoro-3,4-dihydro-2H-chromen-4-yl)amino]-N-(2-hydroxyethyl)-N,2,3-trimethylimidazol[1,2-a]pyridine-6-carboxamide]
3 | 170 nM | Cc1nc2c(NC3CCOc4c(F)cccc43)cc(C(=O)N(C)C)cn2c1C (single isomer, unassigned) [Example 14-3, 8-[(8-Fluoro-3,4-dihydro-2H-chromen-4-yl)amino]-N,N,2,3-tetramethylimidazo[1,2-a]pyridine-6-carboxamide]
4 | 53.2 nM | Cc1nc2c(NC3CCOc4cc(F)cc(F)c43)cc(C(=O)N(C)CCO)cn2c1C (single isomer, unassigned) [Example 9-3, 8-[(5,7-Difluoro-3,4-dihydro-2H-chromen-4-yl)amino]-N-(2-hydroxyethyl)-N,2,3-trimethylimidazo[1,2-a]pyridine-6-carboxamide]
5 | 91 nM | Cc1nc2c(NC3CCOc4cccc(F)c43)cc(C(=O)N(C)C)cn2c1C (single isomer, unassigned) [Example 10-3, 8-[(5-Fluoro-3,4-dihydro-2H-chromen-4-yl)amino]-N,N,2,3-tetramethylimidazo[1,2-a]pyridine-6-carboxamide]
6 | 61.9 nM | Cc1nc2c(NC3CCOc4ccccc43)cc(C(=O)N(C)C)cn2c1C (single isomer, unassigned; (-)) [Example 1-2, (−)-8-(3,4-Dihydro-2H-chromen-4-ylamino)-N,N,2,3-tetramethylimidazo[1,2-a]pyridine-6-carboxamide]

system: acid secretion in the gastric lumen-perfused rat; test: Inhibition of acid secretion in the gastric lumen-perfused rat; format: in vivo; settings: Sprague-Dawley rat, pentagastrin-stimulated acid secretion, intravenous bolus or intraduodenal administration
Description: Acid secretion in the gastric lumen-perfused rat was measured according to Watanabe et al. [Watanabe K et al., J. Physiol. (Paris) 2000; 94: 111-116].
Male Sprague-Dawley rats, 8 weeks old, deprived of food for 18 hours before the experiment with free access to water, were anesthetized with urethane (1.4 g/kg, i.p.) and tracheotomized. After a middle abdominal incision, a dual polyethylene cannula was inserted into the forestomach and the stomach was perfused with saline (37° C., pH 5.0) at a rate of 1 ml/min. The acid output in the perfusate was determined at 5 minutes interval by titration with 0.02 M NaOH to pH 5.0. After the determination of basal acid secretion for 30 min, the acid secretion was stimulated by a continuous intravenous infusion of pentagastrin (16 μg/kg/h). The test compounds were administered by an intravenous bolus injection or intraduodenal administration after the stimulated acid secretion reached a plateau phase. The acid secretion was monitored after the administration.

Row | SMILES | inhibitory activity (inhibition of acid secretion)
7 | Cc1cccc2c1C(Nc1cc(C(=O)N(C)CCO)cn3c(C)c(C)nc13)CCO2 (single isomer, unassigned; (+)) [Example 5-3, (+)-N-(2-Hydroxyethyl)-N,2,3-trimethyl-8-[(5-methyl-3,4-dihydro-2H-chromen-4-yl)amino]imidazo[1,2-a]pyridine-6-carboxamide] | good inhibitory activity
